Test results: patent US8334259B2, “Method of treating endothelial dysfunction comprising administration of a thrombin peptide derivative” (The Board of Regents, The University of Texas System, priority 2006, dated 2012)

Key:
[1] = test system: HLME (Human Lung Microvascular Endothelial Cells); experiment: Survival of serum-deprived HLME cells; assay type: cell-based
[2] = test system: Human coronary artery endothelial (HCAE) cells; experiment: Endothelial cell invasion assay through Matrigel toward human VEGF; assay type: cell-based; conditions: cells not pretreated, VEGF 10 ng/ml, normoxic or hypoxic
Protocol: Invasion of endothelial cells through a Matrigel matrix is one of many assays used to determine the angiogenic potential of test substances and is thought to be more predictive of angiogenesis in vivo than a simple chemotactic assay through open membrane pores since the cells must degrade and invade the matrix to move into and through the pores in the membrane. […] Human coronary artery endothelial (HCAE) cells (Lonza Walkersville, Inc., Walkersville, Md.) were cultured in the absence (control) or presence of TP508 [50 μg/ml] (TP pret) for 24 hours. Endothelial cell invasion assays were performed using BD BioCoat™ Angiogenesis System (BD Bioscience, Bedford, Mass.) which utilizes FluoroBlok inserts coated with BD Matrigel Matrix (BD Bioscience, Bedford, Mass.). Control or TP508 pretreated cells were added into the top of the inserts. […] After 22 hours of incubation, cells were labeled post-invasion with Calcein AM and measured by detecting the fluorescence of the cells that migrated to the underside of insert membrane.

VEGF mRNA = experiment: Real-time PCR of VEGF mRNA in HCMVE cells; assay type: cell-based, human; conditions: VEGF 10 ng/ml, 24 h
Source text: Real-time PCR analyses show changes in steady-state levels of VEGF mRNA after treatment. Data from one experiment performed in triplicate are shown in FIG. 11 as mean±SD. *p<0.01 compared to control (C) cells in normoxia. ^#p<0.01 compared to control (C) cells in hypoxia.

eNOS [3] = experiment: Human VEGF-induced eNOS activation (phosphorylation at S1177) in HCAE cells, Western blot; assay type: cell-based
Protocol: Human VEGF-induced eNOS activation was determined by Western blotting using an antibody recognizing the activated form of eNOS (phosphorylated at […]) (Cell Signaling, Danvers, Mass.). The membrane was re-probed with anti-GAPDH (glyceraldehyde-3-phosphate dehydrogenase) antibody to show equal protein loading. A bar graph representing densitometric analysis of the activated eNOS Western blot after different treatments is shown in FIG. 8.

[4] = test system: Human coronary artery endothelial (HCAE) cells; experiment: Transmembrane cell migration assay toward human VEGF (BD FluoroBlok inserts); assay type: cell-based; conditions: VEGF 10 ng/ml, hypoxic, 22 h
Protocol: The ability of a test substance to attract endothelial cells and stimulate their migration through pores in the membrane is one of several tests to determine the angiogenic potential of test substances. […] Prior to migration assay, cells were cultured with or without TP508 to determine the effect of TP508 on endothelial migration. Human coronary artery endothelial (HCAE) cells (Lonza Walkersville, Inc., Walkersville, Md.) were cultured in the absence (control) or presence of TP508 [50 μg/ml] (“TP pret” in FIG. 9A and FIG. 9B) for 24 hours. Transmembrane cell migration assays were performed using BD FluoroBlok inserts (BD Bioscience, Bedford, Mass.) as described by the vendor. Control or TP508 pretreated cells were added into the top of the inserts. […] (V) or medium alone (C) was added to the lower chamber of the insert plate as a chemoattractant. Endothelial migration was performed in normoxic or 1% hypoxic conditions. After a 22-hour incubation, cells were labeled post-migration with Calcein AM and measured by detecting the fluorescence of the cells that migrated to the underside of the insert membrane.

eNOS mRNA [5] = experiment: SYBR Green real-time PCR of eNOS mRNA in HCAE cells; assay type: cell-based, human; conditions: 24 h
Protocol: (§1) Human coronary artery endothelial cells (HCAE cells, Cambrex Bio Science Walkersville, Walkersville, Md.) were cultured in 5% CO2 at 37° C. in endothelial cell growth medium (EGM) supplemented with 2% fetal bovine serum and Single Quot supplements (Clonetics, San Diego, Calif.; containing epidermal growth factor, hydrocortisone, vascular endothelial growth factor, fibroblast growth factor, insulin growth factor, ascorbic acid, heparin, gentamycin, and amphotericin B). Cells were used between passages 4 and 6 for these studies. HCAE cells were plated at a density of 50,000 cells per well in 12-well plates and were grown for 3 days to reach confluency. Two-day post-confluent cells were treated with TNFα or TP508. Cells were then incubated in normoxic or 1% hypoxic conditions for the indicated times. In some experiments, cells were pretreated with TP508 for 1 h before TNFα stimulation. For RNA extraction, HCAE cells were cultured in 6-well plates.
Real time quantitative PCR was used to determine relative expression of eNOS mRNA in endothelial cells treated with TP508 or TNF. […] Quantitative PCR amplifications were done using 2 μl of cDNA in a total volume of 25 μl using SYBR green probes in the SYBR Green PCR Master Mix (ABI). […] The reverse-transcribed cDNA sample cycle threshold values were determined from triplicate samples and normalized to the 18S “housekeeping” gene.

ARG1 = ARG1 expression in HAE cells treated with TNFα; assay type: cell-based, human
Source text: Under normoxic conditions, TP508 increased phosphorylated eNOS (p-eNOS) and eNOS in cells with and without TNFα/hypoxic treatment.

arginase 1 (ARG1) = experiment: Western blot of arginase 1 expression in HCAE cells with or without TNFα; assay type: cell-based, human; conditions: TNFα 24 h, normoxic
Protocol: Human coronary artery endothelial cells (HCAE cells, Cambrex Bio Science Walkersville, Walkersville, Md.) were cultured in 5% CO2 at 37° C. in endothelial cell growth medium (EGM) supplemented with 2% fetal bovine serum and Single Quot supplements (Clonetics, San Diego, Calif.; containing epidermal growth factor, hydrocortisone, vascular endothelial growth factor, fibroblast growth factor, insulin growth factor, ascorbic acid, heparin, gentamycin, and amphotericin B). Cells were used between passages 4 and 6 for these studies. HCAE cells were plated at a density of 50,000 cells per well in 12-well plates and were grown for 3 days to reach confluency. […] Cells were then incubated in normoxic or 1% hypoxic conditions for the indicated times.
The cell lysates were subjected to SDS-PAGE in a 10% polyacrylamide gel and transferred to a nitrocellulose membrane (0.2-μm, Invitrogen). After blocking with 5% milk, the membrane was incubated overnight at 4° C. with primary antibodies against phospho-eNOS (Ser 1177) and eNOS (Cell Signaling Technology, Beverly, Mass.), human type-1 arginase (clone 9C5) (Cell Sciences, Canton, Mass.), or GAPDH (Santa Cruz Biotechnology, Santa Cruz, Calif.). HRP-conjugated anti-mouse or anti-rabbit antibodies (Cell Signaling Technology) were used as secondary antibodies (HRP, horseradish peroxidase). […]

eNOS mRNA [6] = experiment: RT-PCR of eNOS mRNA in HCAE cells; assay type: cell-based, human; conditions: 6 h, 25 or 30 cycles
Protocol: as §1
Total RNA was isolated using an Ambion isolation kit as described by the manufacturer.
RT-PCR for eNOS was performed by Ready-to-Go RT-PCR Beads (Amersham Biosciences) using a two-step protocol. First, cDNA synthesis was achieved by incubating 1 μg total RNA with 1 μg random hexamers (pdN6) as primers and M.-MuLV reverse transcriptase at 42° C. for 60 min. […]

eNOS [7] = experiment: Western blot of eNOS expression and phosphorylation (S1177) in HCAE cells; assay type: cell-based, human; conditions: 24 h
Protocol: as §1
The cell lysates were subjected to SDS-PAGE in a 10% polyacrylamide gel and transferred to a nitrocellulose membrane (0.2-μm, Invitrogen). After blocking with 5% milk, the membrane was incubated overnight at 4° C. with primary antibodies against phospho-eNOS (Ser 1177) and eNOS (Cell Signaling Technology, Beverly, Mass.), human type-1 arginase (clone 9C5) (Cell Sciences, Canton, Mass.), or GAPDH (Santa Cruz Biotechnology, Santa Cruz, Calif.). […]

AC-23 = experiment: Binding of biotin-conjugated thrombin to complementary peptide AC-23
Source text: Addition of TP508 inhibited specific binding of biotin-labeled thrombin to AC-23. Up to 60% of the binding of thrombin to AC-23 can be inhibited by the addition of TP508. Therefore, both thrombin and TP508 bind to the complementary peptide, AC-23. […] Antibodies to AC-23 and other complementary peptides of thrombin can therefore be used to characterize the thrombin binding site that is activated by TP508, and can be used in the therapeutic and other methods described herein.

23C53 = experiment: Binding of biotin-conjugated thrombin to complementary peptide 23C53
Chain of 23C53 (as listed by the source): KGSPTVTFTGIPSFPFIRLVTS

Chain of AC-23 (as listed by the source): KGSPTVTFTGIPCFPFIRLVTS

With VEGF as the substance, how does the Cell survival [1] read?
The Cell survival was “increased survival at lower levels”.

And the “Invasion of control endothelial cells through Matrigel toward human VEGF” value [2]?
Its value is “not stimulated”.

And the “VEGF mRNA in hypoxic cells” value (VEGF mRNA; 1% hypoxic)?
The value was “no effect, or decreased”.

And the “Decrease of VEGF mRNA expression compared to control cells” value (VEGF mRNA; normoxic)?
Its value is 2 fold.

What about the “Decrease of VEGF-stimulated eNOS phosphorylation in hypoxic compared to normoxic cells” value (eNOS [3]; hypoxic (1% O2, 24 h) HCAE cells, 1 min VEGF) of the same substance?
Its value is about 4 fold.

What about the “VEGF-induced phosphorylation of eNOS on serine 1177, maximum” value (eNOS [3]; normoxic HCAE cells, VEGF 50 ng/ml, 1 minute) of the same substance?
The value was 2 fold.

And the “Endothelial cell migration relative to media control cells” value [4]?
The value was about 150%.

Which “Decrease of eNOS mRNA level” value (eNOS mRNA [5]) does the source give for TNFα here?
The value was about 80%.

And the “Expression of ARG1” value (ARG1)?
The value was “increasing expression”.

And the “ARG1 expression relative to control cultures” value (arginase 1 (ARG1))?
Its value is “significant increase”.

And the “eNOS mRNA expression (RT-PCR)” value (eNOS mRNA [6])?
The value was “drastically decreased”.

And the “Reduction of eNOS expression relative to normoxic controls” value (eNOS [7])?
Its value is 65%.

How did the “Specific binding of thrombin to AC23” value (AC-23) turn out when thrombin was run?
The value was “bind specifically”.

What about the “Specific binding of thrombin to 23C53” value (23C53) of the same substance?
Its value is “bind specifically”.
